This is an account of results in patent US10787430B2, “Hemoglobin modifier compounds and uses thereof” (FronThera U.S. Pharmaceuticals LLC, priority 2016, dated 2020).

SMILES strings stand for the structures.

Data set [1] has as its target T1, hemoglobin (20% hct blood) (Homo sapiens, UniProt P68871+P69905).
T1 construct: Normal whole blood was collected from adult healthy donors; from tissue; host or cells: normal human whole blood (red blood cells), adult healthy donors
The experiment in a line: Dose-dependent whole blood OEC studies. To be noted: 37° C., 1 hr; for delta p50 0.2 mM: 0.2 mM compound; for delta p50 0.5 mM: 0.5 mM compound. In kind it is cell-based. The procedure, abridged:
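Human whole blood at 20% hct shaken with 0.2, 0.5 or 1 mM compound at 37° C. for 1 hr; DMSO (1%) vehicle control. Oxygen equilibrium curves gave pO2 and Hb oxygen saturation (sO2), reported as delta p50%.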

Data set [2] relates to sickled HbSS whole blood (RBC sickling). The data set is described as follows: Anti-sickling assay in HbSS sickled blood under hypoxic induction. As to conditions: HbSS whole blood 26% Hct, 20 mins hypoxic induction; 0.2 mM compounds (FIG. 2). In kind it is cell-based, human. Here is the method: Materials: • Blood collected after informed consent from sickle cell individuals. • HBS buffer: 10 mM HEPES, 145 mM NaCl, pH 7.4 • Hemox buffer: Buffer provided for the hemox analyzer • Control Compound stock solution in DMSO (50 mM) stored at RT • Control Compound work solution (CWS): 10 μl of DMSO was added by Hamilton to 90 μl of HBS buffer (20 mM Hepes, 145 mM NaCl, pH 7.4) to create a working solution with a final concentration of 5 mM drug and 10% DMSO). • Compound stock solution in DMSO (50 mM) stored at RT • Compound work solution (WS): 10 μl of DMSO was added by Hamilton to 90 μl of HBS buffer (20 mM Hepes, 145 mM NaCl, pH 7.4) to create a working solution with a final concentration of 5 mM drug and 10% DMSO). • DMSO buffer: 10% DMSO (DB), same as WS but without drug. This will be used to maintain DMSO the same for different drug incubations. Test Protocol:
Collect blood from Clinic: Blood were collected after informed consent according to an approved IRB protocol. • Run Advia 120 analysis on SCD blood, to determine Hct. • Dilute blood to 20% Hct with HBS to total volume of 3 ml. • This cell suspension (CS) will be used for all experiments.
Incubation • 1. 200 μl CS • 2. 200 μl CS+20 μl CWS (5 mM diluted 10 times=0.5 mM control final)−(1% DMSO) • 3. 200 μl CS+20 μl WS (5 mM diluted 10 times=0.5 mM control final)−(1% DMSO) • 4. 200 μl CS+8 μl WS (0.2 mM drug final)+DB−(1% DMSO) • Incubate 30 minutes at 37° C.
50 μl into 1 ml HBS+2% BSA buffer. Eight time points (0-20 minutes) at 2% oxygen, 10,000 events each)
The sickling runs provide sets samples that need to be run on the AMNIS image flow and are subsequently analyzed with pixel analysis software.
Drug was provided at 50 mM concentration in DMSO, and stored at room temperature until use. 10 μl of DMSO was added by Hamilton to 90 μl of HBS buffer (20 mM Hepes, 145 mM NaCl, pH 7.4) to create a working solution with a final concentration of 5 mM drug and 10% DMSO). Blood was collected from a sickle cell patient in EDTA anticoagulant. To 200 μl of whole blood, a 20 or 8 μl of working solution was added resulting in a final drug concentration of 0.5 mM or 0.2 mM respectively. The DMSO concentration in both was corrected to 1%. The final hematocrit was measured by ADVIA analysis to be 26%. […] The delta hemox (%) comparing Example 29e with GBT440 is shown in FIG. 1A (0.2 mM) and FIG. 1B (0.5 mM).
Anti-sickling is shown in FIG. 2 with M: maximum percentage of sickled cells during 20 mins of hypoxic induction, T: time needed to reach 50% of M, and Z: baseline percentage of sickled cells prior to hypoxic induction.

The target in a further data set is T2, CYP1A2 (Homo sapiens, UniProt P05177).
T2 construct: from tissue; host or cells: human liver microsomes
T2 sequence (P05177 1-516): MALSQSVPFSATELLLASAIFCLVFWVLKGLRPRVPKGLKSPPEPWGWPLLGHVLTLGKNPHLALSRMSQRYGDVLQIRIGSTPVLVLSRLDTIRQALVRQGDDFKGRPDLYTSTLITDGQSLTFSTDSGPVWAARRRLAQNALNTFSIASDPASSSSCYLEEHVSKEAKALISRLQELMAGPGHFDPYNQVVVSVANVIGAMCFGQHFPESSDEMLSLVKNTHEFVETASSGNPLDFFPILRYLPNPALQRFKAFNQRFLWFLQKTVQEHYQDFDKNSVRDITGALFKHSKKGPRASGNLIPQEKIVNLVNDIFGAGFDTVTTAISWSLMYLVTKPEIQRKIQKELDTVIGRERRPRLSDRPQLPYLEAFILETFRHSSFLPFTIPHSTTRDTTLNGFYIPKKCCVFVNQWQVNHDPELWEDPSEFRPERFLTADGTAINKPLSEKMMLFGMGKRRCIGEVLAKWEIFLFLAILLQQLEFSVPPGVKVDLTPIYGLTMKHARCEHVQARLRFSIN
The experiment in a line: CYP inhibition evaluation in human liver microsomes. The format is in vitro ADME. The source says:
(§1) Example A5: CYP Inhibition Evaluation in Human Liver Microsomes
For orientation: Liver microsomes are a subcellular fraction often used to study metabolism.

Another data set has as its target T3, CYP2C19 (Homo sapiens, UniProt P33261).
T3 construct: from tissue; host or cells: human liver microsomes
The description is as above. In kind it is in vitro ADME.
Excerpt: as §1

A further data set has as its target T4, CYP2C8 (Homo sapiens, UniProt P10632).
T4 construct: from tissue; host or cells: human liver microsomes
T4 sequence (P10632 1-490): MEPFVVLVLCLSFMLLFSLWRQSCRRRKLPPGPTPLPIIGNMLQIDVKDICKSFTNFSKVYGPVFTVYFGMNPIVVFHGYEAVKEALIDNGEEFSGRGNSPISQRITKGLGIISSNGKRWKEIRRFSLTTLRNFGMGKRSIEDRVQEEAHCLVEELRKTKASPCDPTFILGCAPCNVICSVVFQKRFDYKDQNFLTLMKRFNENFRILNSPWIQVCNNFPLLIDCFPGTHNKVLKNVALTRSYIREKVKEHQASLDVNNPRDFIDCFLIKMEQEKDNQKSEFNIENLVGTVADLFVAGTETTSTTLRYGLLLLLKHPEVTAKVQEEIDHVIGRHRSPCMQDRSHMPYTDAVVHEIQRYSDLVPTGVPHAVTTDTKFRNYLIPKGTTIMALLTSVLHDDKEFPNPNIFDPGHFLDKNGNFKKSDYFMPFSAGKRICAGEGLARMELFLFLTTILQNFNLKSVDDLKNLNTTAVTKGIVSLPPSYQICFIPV
Described as above. In kind it is in vitro ADME.
Excerpt: as §1

The target in the next data set is T5, CYP2C9 (Homo sapiens, UniProt P11712).
T5 construct: from tissue; host or cells: human liver microsomes
The description is as above. In kind it is in vitro ADME.
Excerpt: as §1

The target of another data set is T6, CYP2D6 (Homo sapiens, UniProt P10635).
T6 construct: from tissue; host or cells: human liver microsomes
Described as above. The format is in vitro ADME.
Excerpt: as §1

Another data set concerns the target T7, CYP3A4-M (Homo sapiens, UniProt P08684).
T7 construct: from tissue; host or cells: human liver microsomes
Described as above. The format is in vitro ADME.
Excerpt: as §1

A short description of data set [3]: Microsome stability evaluation in rat liver microsomes. The format is in vitro ADME. To be noted: read-out: Rat microsome, t½. An excerpt: (§2) Example A6: Microsome Stability Evaluation in Human and Rat Liver Microsomes
A short description of data set [4]: Microsome stability evaluation in human liver microsomes. The format is in vitro ADME. As to conditions: read-out: Human microsome, t½.
Excerpt: as §2

A word on the IC50: it is the concentration needed to halve the response being measured. The low end stands for greater potency in that assay, the high end for weaker potency in that assay.

T3 sequence (P33261 whole entry): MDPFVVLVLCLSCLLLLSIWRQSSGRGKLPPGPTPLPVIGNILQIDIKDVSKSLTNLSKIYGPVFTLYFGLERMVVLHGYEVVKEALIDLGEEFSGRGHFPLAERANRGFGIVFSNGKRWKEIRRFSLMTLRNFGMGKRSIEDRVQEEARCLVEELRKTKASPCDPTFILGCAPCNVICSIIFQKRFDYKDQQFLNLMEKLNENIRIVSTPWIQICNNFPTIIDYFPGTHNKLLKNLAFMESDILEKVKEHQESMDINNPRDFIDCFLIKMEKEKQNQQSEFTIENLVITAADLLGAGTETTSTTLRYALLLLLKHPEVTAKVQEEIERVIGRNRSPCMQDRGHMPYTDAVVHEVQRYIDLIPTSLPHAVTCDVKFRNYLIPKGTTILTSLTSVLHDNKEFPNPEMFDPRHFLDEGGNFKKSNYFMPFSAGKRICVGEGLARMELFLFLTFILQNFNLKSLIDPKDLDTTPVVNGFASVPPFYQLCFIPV
T7 sequence (P08684 whole entry): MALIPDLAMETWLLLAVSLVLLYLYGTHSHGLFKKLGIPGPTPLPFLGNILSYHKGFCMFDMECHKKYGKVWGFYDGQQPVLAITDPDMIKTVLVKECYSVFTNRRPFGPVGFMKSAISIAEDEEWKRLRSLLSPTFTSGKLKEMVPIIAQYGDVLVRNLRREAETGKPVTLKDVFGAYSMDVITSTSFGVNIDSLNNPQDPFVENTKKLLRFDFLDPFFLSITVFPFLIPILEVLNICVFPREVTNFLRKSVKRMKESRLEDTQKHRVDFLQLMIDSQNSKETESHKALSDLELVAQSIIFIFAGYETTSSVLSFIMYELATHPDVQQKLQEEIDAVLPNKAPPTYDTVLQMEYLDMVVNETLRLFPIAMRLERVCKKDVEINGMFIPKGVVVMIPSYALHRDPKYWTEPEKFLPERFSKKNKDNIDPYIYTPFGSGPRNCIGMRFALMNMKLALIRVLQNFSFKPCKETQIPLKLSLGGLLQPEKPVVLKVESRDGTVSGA
T5 sequence (P11712 whole entry): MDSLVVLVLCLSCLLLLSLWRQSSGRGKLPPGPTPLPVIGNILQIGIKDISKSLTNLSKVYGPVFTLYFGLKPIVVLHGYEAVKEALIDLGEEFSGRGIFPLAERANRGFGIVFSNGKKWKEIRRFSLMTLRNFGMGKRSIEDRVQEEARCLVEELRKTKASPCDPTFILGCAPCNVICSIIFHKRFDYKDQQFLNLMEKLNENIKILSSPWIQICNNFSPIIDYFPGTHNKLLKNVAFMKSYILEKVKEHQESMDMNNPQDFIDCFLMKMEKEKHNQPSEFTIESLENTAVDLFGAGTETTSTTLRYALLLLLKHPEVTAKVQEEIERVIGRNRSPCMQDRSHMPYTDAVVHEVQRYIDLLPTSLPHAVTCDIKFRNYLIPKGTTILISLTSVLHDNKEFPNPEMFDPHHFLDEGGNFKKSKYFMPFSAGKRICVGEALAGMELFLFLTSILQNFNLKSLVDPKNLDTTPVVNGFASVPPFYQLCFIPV
T6 sequence (P10635 whole entry): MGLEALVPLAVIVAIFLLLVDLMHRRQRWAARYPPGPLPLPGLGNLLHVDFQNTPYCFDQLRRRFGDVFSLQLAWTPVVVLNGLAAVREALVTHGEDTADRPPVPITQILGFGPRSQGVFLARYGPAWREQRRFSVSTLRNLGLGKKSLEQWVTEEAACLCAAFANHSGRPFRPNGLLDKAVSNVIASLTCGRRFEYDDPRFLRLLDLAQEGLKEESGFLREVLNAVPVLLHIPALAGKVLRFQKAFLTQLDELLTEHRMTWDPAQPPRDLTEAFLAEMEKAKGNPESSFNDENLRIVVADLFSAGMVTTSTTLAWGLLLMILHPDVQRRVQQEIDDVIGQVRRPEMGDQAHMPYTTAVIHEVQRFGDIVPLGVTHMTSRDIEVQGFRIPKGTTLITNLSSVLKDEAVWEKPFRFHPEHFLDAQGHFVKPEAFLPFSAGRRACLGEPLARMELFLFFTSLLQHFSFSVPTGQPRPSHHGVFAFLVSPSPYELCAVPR
T1 sequence (P69905 2-142 limits assumed): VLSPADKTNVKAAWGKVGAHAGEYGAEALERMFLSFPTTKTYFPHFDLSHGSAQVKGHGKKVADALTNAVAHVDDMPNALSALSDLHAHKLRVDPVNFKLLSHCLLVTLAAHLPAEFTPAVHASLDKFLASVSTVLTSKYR
T1 sequence (P68871 2-147 limits assumed): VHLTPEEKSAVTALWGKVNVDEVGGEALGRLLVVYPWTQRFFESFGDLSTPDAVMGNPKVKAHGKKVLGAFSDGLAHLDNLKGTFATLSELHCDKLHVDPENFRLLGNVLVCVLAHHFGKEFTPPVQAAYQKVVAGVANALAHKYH

As to `[2H]C([2H])(Oc1cc(F)cc(O)c1C=O)c1cccnc1-c1ccnn1C(C)C` [Example 27b, 4-fluoro-2-hydroxy-6-((2-(1-isopropyl-1H-pyrazol-5-yl)pyridin-3-yl)methoxy-d2)benzaldehyde], the “delta p50 0.2 mM” value in [1] was −18.8%. For the same compound, the “delta p50 0.5 mM” value in data set [1] is reported as −56.6%. In addition, the “Reduction in % sickled cells compared to untreated” value (from here on “Reduction in % sickled cells”) in [2] is listed as −30.8%. Further, the IC50 against CYP1A2 was 22 µM; at CYP2C19, 6.1 µM; against CYP2C8, 3.7 µM; on CYP2C9 it was 11 µM; at CYP2D6, greater than 30 µM; on CYP3A4-M it was 10 µM. Besides, the figures for the half-life in data set [3] and in data set [4] were 19 min and 24 min, respectively.
In the case of `[2H]C([2H])(Oc1cccc(O)c1C=O)c1cccnc1-n1ccnc1C(C)C` [Example 29e, 2-hydroxy-6-((2-(2-isopropyl-1H-imidazol-1-yl)pyridin-3-yl)methoxy-d2)benzaldehyde], the “delta p50 0.2 mM” value in [1] is recorded as −24.9%. Besides, the “delta p50 0.5 mM” value in [1] was −66.1%. Moreover, the “Reduction in % sickled cells” value in data set [2] is reported as −27.1%. For the same compound, the IC50 at CYP1A2 was greater than 50 µM; on CYP2C19, 19.5 µM; against CYP2C8 it was greater than 50 µM; on CYP2C9, 36.5 µM; on CYP2D6, greater than 50 µM; against CYP3A4-M, greater than 50 µM. Moreover, the half-life in data set [3] and in [4] was 11 min throughout.
Turning to `CC(C)n1nccc1-c1ncccc1COc1cccc(O)c1C=O` [GBT440, reference compound], the “delta p50 0.2 mM” value in [1] is reported as −14.2%. Further, in data set [1], the “delta p50 0.5 mM” value is −35.1%. In data set [2], the “Reduction in % sickled cells” value is on record as −22.4%. Moreover, the IC50 on CYP1A2 is 17.6 µM; against CYP2C19, 7 µM; against CYP2C8 it was 12.4 µM; at CYP2C9 it was 28.1 µM; against CYP2D6, greater than 30 µM; against CYP3A4-M, greater than 30 µM. The half-life in data set [3] stood at 22 min; in [4] it was 24 min.
